The text below walks through data of patent US8410144B2, “Substituted indolo-pyridinone compounds” (ArQule, Inc., priority 2009, dated 2013).

Structures are written as SMILES.

One data set relates to NCI-H1299. As to the kind of experiment: MTS assay, NCI-H1299 cells. The data set is classed as cell-based. To be noted: Homo sapiens, 72 hours, read-out: NCI-H1299, MTS cell kill % inhibition. The protocol: (§1) Cells were maintained at 37° C., 5% CO2 in DMEM media supplemented with 1% fetal bovine serum, penicillin/streptomycin and fungizone (Invitrogen). Cells were seeded into 96-well tissue culture plates at 3000 per well and cultured at 37° C. for 18 hours. Test compounds were dissolved and diluted to 300× in DMSO then diluted 1:40 in DMEM. Cells were incubated with test compounds for 72 hours followed by incubation with tetrazolium compound (3-(4,5-dimethylthiazol-2-yl)-5-(3-carboxymethoxyphenyl)-2-(4-sulfophenyl)-2H-tetrazolium, inner salt; MTS) and the electron coupling reagent, phenazine methosulfate (PMS) for 4 hours. […] The ability of compounds to inhibit cell growth in this assay is correlated with the reduction of dehydrogenase enzyme activity found in metabolically active cells. The measurement of the absorbance of the formazan was assessed using an ENVISION™ (Perkin Elmer) microplate reader at 492 nm. The calculated IC50 value is the concentration of the test compound that causes a 50% decrease in the absorbance.
(Tetrazolium dyes change colour on reduction, which living cells bring about.)

The next data set concerns DLD-1. As to the kind of experiment: MTS assay, DLD-1 cells. The following applies: Homo sapiens, 72 hours, read-out: DLD-1, MTS cell kill % inhibition. The data set is classed as cell-based. The protocol:
as §1

A further data set relates to MDA-MB-231. As to the kind of experiment: MTS assay, MDA-MB-231 cells. In kind it is cell-based. The following applies: Homo sapiens, 72 hours, read-out: MDA-MB-231, MTS cell kill % inhibition. As to the method:
as §1

Another data set relates to KATO III. The data set is described as follows: MTS assay, KATO III cells. In kind it is cell-based. To be noted: Homo sapiens, 72 hours, read-out: KATO III, MTS cell kill % inhibition. As to the method:
as §1

The next data set has as its target IGF-1R (Homo sapiens, UniProt P08069). The data set is described as follows: IGFR1 activity assay (ELISA). In kind it is biochemical. The following applies: read-out: IGF-1R, PCT INH (30 μM), ELISA. The protocol: The disclosed compounds were assayed for their ability to inhibit insulin-like growth factor receptor-1 (IGFR1). Nunc Maxisorb plates were coated with streptavidin by overnight incubation with 100 μL per well of 1 μg/ml Streptavidin in DPBS. Prior to the start of the experiment, the plates were washed with TBST (3×200 μL) and blocked for at least 1 hour by adding 150 μL of 5% BSA/TBST. The plates were washed with TBST (3×200 μL/well) and left to dry immediately before the capture step.
The disclosed test articles and controls (Staurosporine) were prepared using the following assay buffer at 3× desired final concentration (50 mM Tris-HCl, 0.02 mg/ml BSA, 10 mM MgCl2, 0.1 mM Na3VO4, 1 mM EGTA, 12.5 μM ATP, 0.01% NP-40, 1 mM DTT in 10% glycerol/water). 20 μL of the test compounds (or control), 20 μL IGF1R (0.33 ng/μL final concentration), and 20 μL of Pyk-2 (0.05 ng/μL final concentration) were rapidly added to the reaction plate. The plate was incubated at room temperature for one hour.
50 μL was transferred from the reaction plate to the streptavidin coated plate. The capture plate was incubated at room temperature for 30 minutes, then washed with TBST three times. 100 μL/well of Cell Signaling anti-phospho tyrosine was added to the capture plate at a dilution of 1:3000 in 2% BSA/TBST. The plate was incubated for one hour at room temperature then washed 6× with TBST. 100 μL/well of alkaline phosphatase tagged goat anti mouse antibody was added to the capture plate at a dilution of 1:4000 in 2% BSA/TBST. The plate was incubated for one hour at room temperature then washed with TBST six times.
The fluorescent readout is initiated by the addition of 100 μL/well of Attophos reagent (6 mg/10 mL). The reading is done on the Perkin Elmer Envision system.

IGF-1R, sequence (P08069 31-1367): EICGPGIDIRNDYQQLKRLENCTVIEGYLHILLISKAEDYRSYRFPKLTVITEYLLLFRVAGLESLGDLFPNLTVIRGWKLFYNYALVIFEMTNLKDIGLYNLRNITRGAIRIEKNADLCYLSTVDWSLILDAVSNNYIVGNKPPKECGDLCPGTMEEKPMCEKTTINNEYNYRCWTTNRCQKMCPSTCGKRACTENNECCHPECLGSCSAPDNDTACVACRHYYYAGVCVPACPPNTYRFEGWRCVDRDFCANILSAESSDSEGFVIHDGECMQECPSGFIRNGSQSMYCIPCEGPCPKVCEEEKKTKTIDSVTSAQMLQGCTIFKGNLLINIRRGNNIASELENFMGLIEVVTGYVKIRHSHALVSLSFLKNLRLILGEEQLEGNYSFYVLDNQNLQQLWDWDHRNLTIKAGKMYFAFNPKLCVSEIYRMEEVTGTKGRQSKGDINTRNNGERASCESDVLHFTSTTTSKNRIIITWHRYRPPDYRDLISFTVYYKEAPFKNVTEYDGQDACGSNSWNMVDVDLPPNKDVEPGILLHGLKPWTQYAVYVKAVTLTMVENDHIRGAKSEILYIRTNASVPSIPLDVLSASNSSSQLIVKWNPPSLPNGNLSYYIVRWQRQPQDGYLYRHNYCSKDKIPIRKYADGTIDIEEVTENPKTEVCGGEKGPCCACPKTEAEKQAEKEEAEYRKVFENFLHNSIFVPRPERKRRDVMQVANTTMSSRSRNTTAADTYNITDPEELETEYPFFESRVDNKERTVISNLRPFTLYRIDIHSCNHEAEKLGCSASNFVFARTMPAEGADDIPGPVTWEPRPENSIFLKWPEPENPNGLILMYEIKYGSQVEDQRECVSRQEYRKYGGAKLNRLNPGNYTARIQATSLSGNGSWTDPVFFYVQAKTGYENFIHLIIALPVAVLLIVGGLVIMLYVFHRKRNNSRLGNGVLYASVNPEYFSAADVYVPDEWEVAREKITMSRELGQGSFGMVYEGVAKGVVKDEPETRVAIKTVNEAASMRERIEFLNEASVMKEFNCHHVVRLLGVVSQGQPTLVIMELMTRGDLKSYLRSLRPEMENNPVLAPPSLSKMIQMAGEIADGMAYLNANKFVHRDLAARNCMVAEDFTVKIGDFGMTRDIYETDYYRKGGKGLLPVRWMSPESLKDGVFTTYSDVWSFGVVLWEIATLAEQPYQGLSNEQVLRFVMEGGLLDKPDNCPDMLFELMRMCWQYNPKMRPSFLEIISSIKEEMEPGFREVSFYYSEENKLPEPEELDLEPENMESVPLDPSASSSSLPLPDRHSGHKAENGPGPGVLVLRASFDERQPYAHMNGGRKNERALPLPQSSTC

What is called melting point is the temperature of the solid-liquid transition. The compound `O=C(NCCCn1ccnc1)c1ccc2[nH]c(-c3ccc[nH]c3=O)c(-c3ccccc3)c2c1` [Compound 6, N-[3-(1H-imidazol-1-yl)propyl]-2-(2-oxo-1,2-dihydropyridin-3-yl)-3-phenyl-1H-indole-5-carboxamide] registered a melting point of 153 to 157 °C. The inhibition at 10 µM in the data set on NCI-H1299 lay in the range of 80 to 100%. Moreover, the inhibition at 10 µM in the data set with DLD-1 is 50 to 79%. Moreover, in the data set with MDA-MB-231, the inhibition at 10 µM was in the range of 50 to 79%. For the same compound, the inhibition at 10 µM with KATO III fell in the range of 80 to 100%.
Take `O=C(NCCCN1CCOCC1)c1cc2c3c(c1)c(-c1ccccc1)c(-c1ccc[nH]c1=O)n3CCC2` [Compound 7, N-(3-morpholin-4-ylpropyl)-2-(2-oxo-1,2-dihydropyridin-3-yl)-1-phenyl-5,6-dihydro-4H-pyrrolo[3,2,1-ij]quinoline-8-carboxamide]: the melting point lay within 151 to 158 °C. Also, in the data set with DLD-1, the inhibition at 10 µM was less than 50%. Further, in the data set with MDA-MB-231, the inhibition at 10 µM is less than 50%. Further, the inhibition at 10 µM in the data set with KATO III was less than 50%.
`COc1cccc(-c2c(-c3ccc[nH]c3=O)[nH]c3ccc(C(=O)NCCCN4CCOCC4)cc23)c1` [Compound 63, 3-(3-methoxyphenyl)-N-(3-morpholin-4-ylpropyl)-2-(2-oxo-1,2-dihydropyridin-3-yl)-1H-indole-5-carboxamide]: the inhibition at 10 µM is 80 to 100% in the data set on NCI-H1299, 50 to 79% in the data set with DLD-1, 50 to 79% in the data set on MDA-MB-231 and 80 to 100% with KATO III. Besides, at IGF-1R, the inhibition at 30 µM was in the range of 80 to 100%.
As to `COc1ccc(C(C)C)cc1-c1c(-c2ccc[nH]c2=O)[nH]c2ccc(C(=O)NCCCN3CCOCC3)cc12` [Compound 64, 3-(5-isopropyl-2-methoxyphenyl)-N-(3-morpholin-4-ylpropyl)-2-(2-oxo-1,2-dihydropyridin-3-yl)-1H-indole-5-carboxamide], the inhibition at 10 µM in the data set on NCI-H1299, with DLD-1, in the data set on MDA-MB-231 and with KATO III was less than 50% throughout. In addition, the inhibition at 30 µM on IGF-1R was 80 to 100%.
On to `Cc1ccc(-c2c(-c3ccc[nH]c3=O)[nH]c3ccc(C(=O)NCCCN4CCOCC4)cc23)cc1F` [Compound 67, 3-(3-fluoro-4-methylphenyl)-N-(3-morpholin-4-ylpropyl)-2-(2-oxo-1,2-dihydropyridin-3-yl)-1H-indole-5-carboxamide], for which the inhibition at 10 µM lay in the range of 80 to 100% with NCI-H1299, 50 to 79% with DLD-1, 50 to 79% with MDA-MB-231 and 80 to 100% with KATO III. In addition, on IGF-1R, the inhibition at 30 µM was 80 to 100%.
As to `O=C(NCCCN1CCOCC1)c1ccc2[nH]c(-c3ccc[nH]c3=O)c(-c3ccc(F)cc3)c2c1` [Compound 68, 3-(4-fluorophenyl)-N-(3-morpholin-4-ylpropyl)-2-(2-oxo-1,2-dihydropyridin-3-yl)-1H-indole-5-carboxamide], the inhibition at 10 µM with NCI-H1299 is 50 to 79%; with DLD-1, less than 50%; in the data set with MDA-MB-231, less than 50%; in the data set with KATO III, less than 50%. In addition, the inhibition at 30 µM at IGF-1R lay in the range of 80 to 100%.
Turning to `O=C(NCCCN1CCOCC1)c1ccc2[nH]c(-c3ccc[nH]c3=O)c(-c3ccc(Cl)cc3)c2c1` [Compound 69, 3-(4-chlorophenyl)-N-(3-morpholin-4-ylpropyl)-2-(2-oxo-1,2-dihydropyridin-3-yl)-1H-indole-5-carboxamide], the inhibition at 10 µM in the data set on NCI-H1299 is less than 50%; in the data set with DLD-1 it was less than 50%; in the data set with MDA-MB-231, 50 to 79%; with KATO III, less than 50%. For the same compound, the inhibition at 30 µM at IGF-1R was 80 to 100%.
For `COc1ccc(-c2c(-c3ccc[nH]c3=O)[nH]c3ccc(C(=O)NCCCN4CCOCC4)cc23)cc1OC` [Compound 73, 3-(3,4-dimethoxyphenyl)-N-(3-morpholin-4-ylpropyl)-2-(2-oxo-1,2-dihydropyridin-3-yl)-1H-indole-5-carboxamide], the inhibition at 10 µM in the data set on NCI-H1299, with DLD-1, with MDA-MB-231 and with KATO III was less than 50% throughout. The inhibition at 30 µM at IGF-1R is 80 to 100%.
`O=C(NCCCN1CCOCC1)c1ccc2[nH]c(-c3ccc[nH]c3=O)c(-c3csc4ccccc34)c2c1` [Compound 74, 3-(1-benzothien3-yl)-N-(3-morpholin-4-ylpropyl)-2-(2-oxo-1,2-dihydropyridin-3-yl)-1H-indole-5-carboxamide]: the inhibition at 10 µM in the data set on NCI-H1299 lay in the range of 50 to 79%; in the data set with DLD-1, 50 to 79%; in the data set with MDA-MB-231, 50 to 79%; in the data set with KATO III, 80 to 100%. Also, the inhibition at 30 µM at IGF-1R was 80 to 100%.
Consider `O=C(NCCCN1CCOCC1)c1ccc2[nH]c(-c3ccc[nH]c3=O)c(-c3ccc(F)c(Cl)c3)c2c1` [Compound 76, 3-(3-chloro-4-fluorophenyl)-N-(3-morpholin-4-ylpropyl)-2-(2-oxo-1,2-dihydropyridin-3-yl)-1H-indole-5-carboxamide], for which the inhibition at 10 µM with NCI-H1299, in the data set with DLD-1, in the data set with MDA-MB-231 and in the data set on KATO III was 80 to 100% each time. Further, at IGF-1R, the inhibition at 30 µM is less than 50%.
Turning to `O=C(NCCCN1CCOCC1)c1ccc2[nH]c(-c3ccc[nH]c3=O)c(-c3ccc(F)cc3F)c2c1` [Compound 77, 3-(2,4-difluorophenyl)-N-(3-morpholin-4-ylpropyl)-2-(2-oxo-1,2-dihydropyridin-3-yl)-1H-indole-5-carboxamide], the inhibition at 10 µM with NCI-H1299, in the data set on DLD-1, in the data set with MDA-MB-231 and in the data set on KATO III was less than 50% each time. Also, the inhibition at 30 µM on IGF-1R was in the range of 80 to 100%.
For `COc1ccc(-c2c(-c3ccc[nH]c3=O)[nH]c3ccc(C(=O)NCCCN4CCOCC4)cc23)cc1` [Compound 80, 3-(4-methoxyphenyl)-N-(3-morpholin-4-ylpropyl)-2-(2-oxo-1,2-dihydropyridin-3-yl)-1H-indole-5-carboxamide], the inhibition at 10 µM lay within 50 to 79% in the data set with NCI-H1299, 50 to 79% in the data set with DLD-1, 50 to 79% in the data set with MDA-MB-231 and 80 to 100% in the data set with KATO III. Also, the inhibition at 30 µM at IGF-1R was in the range of 80 to 100%.
Consider `O=C(NCCCN1CCOCC1)c1ccc2[nH]c(-c3ccc[nH]c3=O)c(-c3cccc(F)c3)c2c1` [Compound 82, 3-(3-fluorophenyl)-N-(3-morpholin-4-ylpropyl)-2-(2-oxo-1,2-dihydropyridin-3-yl)-1H-indole-5-carboxamide], for which the inhibition at 10 µM is 80 to 100% with NCI-H1299, 50 to 79% with DLD-1, less than 50% in the data set on MDA-MB-231 and 80 to 100% in the data set with KATO III. Also, the inhibition at 30 µM at IGF-1R lay within 80 to 100%.
For the compound `O=C(NCCCN1CCOCC1)c1ccc2[nH]c(-c3ccc[nH]c3=O)c(-c3ccc4ncccc4c3)c2c1` [Compound 83, N-(3-morpholin-4-ylpropyl)-2-(2-oxo-1,2-dihydropyridin-3-yl)-3-quinolin-6-yl-1H-indole-5-carboxamide], the inhibition at 10 µM with NCI-H1299, in the data set on DLD-1, in the data set on MDA-MB-231 and in the data set with KATO III was 80 to 100% in each case. The inhibition at 30 µM on IGF-1R lay in the range of 80 to 100%.
`O=c1[nH]cccc1-c1[nH]c2ccccc2c1C1CCN(Cc2ccccc2)CC1` [Compound 85, 3-[3-(1-benzylpiperidin-4-yl)-1H-indol-2-yl]pyridin-2(1H)-one] gave a melting point of 135 to 139 °C. Moreover, the inhibition at 10 µM in the data set on DLD-1 is less than 50%. The inhibition at 10 µM in the data set with MDA-MB-231 is less than 50%. For the same compound, the inhibition at 10 µM in the data set on KATO III is less than 50%.
